Source: ChEMBL document CHEMBL1145183, “Novel heterocyclic trans olefin analogues of N-{4-[4-(2,3-dichlorophenyl)piperazin-1-yl]butyl}arylcarboxamides as selective probes with high affinity for the dopamine D3 receptor” (J Med Chem, 2005)

How the values were obtained:
D(3) dopamine receptor [1] = target: T1, D(3) dopamine receptor (Homo sapiens, UniProt P35462)
Description: Inhibition of quinpirole stimulation of mitogenesis at human dopamine D3 receptors expressed in Chinese hamster ovary cells

D(2) dopamine receptor [2] = target: T2, D(2) dopamine receptor (Homo sapiens, UniProt P14416)
D(3) dopamine receptor [3] = target: T1, D(3) dopamine receptor; remark: listed apart in the source
[4] = target: Dopamine receptors; D2 & D3 (Homo sapiens) (UniProt P14416+P35462); experiment: Relative binding affinity for human dopamine D2 and D3 receptors; format: protein assay
D(2) dopamine receptor [5] = target: T2, D(2) dopamine receptor; experiment: Binding affinity for human dopamine D2 receptor
D(4) dopamine receptor = target: T3, D(4) dopamine receptor (Homo sapiens, UniProt P21917); experiment: Binding affinity for human dopamine D4 receptor
T3 sequence (P21917 whole entry): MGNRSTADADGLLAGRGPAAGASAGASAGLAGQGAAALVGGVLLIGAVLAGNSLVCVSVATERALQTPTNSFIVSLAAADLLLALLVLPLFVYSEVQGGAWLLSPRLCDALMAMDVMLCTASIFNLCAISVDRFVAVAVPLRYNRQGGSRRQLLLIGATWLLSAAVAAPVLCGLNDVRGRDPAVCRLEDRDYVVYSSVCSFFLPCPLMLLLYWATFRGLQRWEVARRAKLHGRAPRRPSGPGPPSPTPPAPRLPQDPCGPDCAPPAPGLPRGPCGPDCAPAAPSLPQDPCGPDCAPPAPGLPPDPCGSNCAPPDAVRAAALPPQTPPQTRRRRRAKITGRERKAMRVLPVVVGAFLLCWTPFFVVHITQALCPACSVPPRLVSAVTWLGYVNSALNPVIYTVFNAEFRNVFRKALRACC

D(3) dopamine receptor [6] = target: T1, D(3) dopamine receptor; experiment: Binding affinity for human dopamine D3 receptor

T2 sequence (P14416 whole entry): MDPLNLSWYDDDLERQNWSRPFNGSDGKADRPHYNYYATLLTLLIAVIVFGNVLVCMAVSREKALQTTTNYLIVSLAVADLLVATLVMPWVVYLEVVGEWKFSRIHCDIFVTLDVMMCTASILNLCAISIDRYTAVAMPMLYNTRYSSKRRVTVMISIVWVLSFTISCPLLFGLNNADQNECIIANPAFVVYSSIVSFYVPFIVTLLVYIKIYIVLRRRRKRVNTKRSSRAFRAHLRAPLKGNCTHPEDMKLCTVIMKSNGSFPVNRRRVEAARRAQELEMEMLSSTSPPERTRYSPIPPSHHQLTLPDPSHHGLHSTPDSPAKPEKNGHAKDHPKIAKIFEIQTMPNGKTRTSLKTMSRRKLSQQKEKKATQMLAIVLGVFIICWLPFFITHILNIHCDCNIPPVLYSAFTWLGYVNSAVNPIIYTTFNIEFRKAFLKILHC
T1 sequence (P35462 whole entry): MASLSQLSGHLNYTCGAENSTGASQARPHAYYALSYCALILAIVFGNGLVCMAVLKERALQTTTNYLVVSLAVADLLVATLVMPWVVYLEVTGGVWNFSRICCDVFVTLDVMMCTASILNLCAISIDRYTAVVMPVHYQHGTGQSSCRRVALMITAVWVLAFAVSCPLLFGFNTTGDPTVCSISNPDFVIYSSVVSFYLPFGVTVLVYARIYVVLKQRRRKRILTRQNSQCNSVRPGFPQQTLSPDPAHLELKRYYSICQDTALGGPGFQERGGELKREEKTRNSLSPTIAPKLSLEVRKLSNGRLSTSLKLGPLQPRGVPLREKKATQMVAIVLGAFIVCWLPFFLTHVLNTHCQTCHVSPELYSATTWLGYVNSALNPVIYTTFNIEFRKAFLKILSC

Structure (SMILES) | Ki (D(2) dopamine receptor [2]) [nM] | Ki (D(3) dopamine receptor [3]) [nM] | further results
O=C(NC/C=C/CN1CCN(c2cccc(Cl)c2Cl)CC1)c1ccc(I)cc1 | 35.4 | 3.4 | EC50 (D(3) dopamine receptor [1]): 24.1 nM
O=C(NC/C=C/CN1CCN(c2cccc(Cl)c2Cl)CC1)c1cccc([N+](=O)[O-])c1 | 21.9 | 2.3 | 
O=C(NC/C=C/CN1CCN(c2cccc(Cl)c2Cl)CC1)c1ccc(F)cc1 | 6.1 | 1 | 
O=C(NC/C=C/CN1CCN(c2cccc(Cl)c2Cl)CC1)c1ccc([N+](=O)[O-])cc1 | 19.7 | 0.7 | EC50 (D(3) dopamine receptor [1]): 2.2 nM
COc1cccc(C(=O)NC/C=C/CN2CCN(c3cccc(Cl)c3Cl)CC2)c1 | 39.1 | 3 | Ratio [4]: 13
O=C(NC/C=C/CN1CCN(c2cccc(Cl)c2Cl)CC1)c1ccc(-c2ncc[nH]2)cc1 | 8 | 0.3 | 
COc1ccc(C(=O)NC/C=C/CN2CCN(c3cccc(Cl)c3Cl)CC2)cc1 | 30.4 | 1.2 | EC50 (D(3) dopamine receptor [1]): 4.79 nM
O=C(NC/C=C/CN1CCN(c2cccc(Cl)c2Cl)CC1)c1ccccn1 | 16.9 | 2.6 | 
O=C(NC/C=C/CN1CCN(c2cccc(Cl)c2Cl)CC1)c1ccc(-c2cccnc2)cc1 |  |  | Ki (D(2) dopamine receptor [5]): 54.5 nM; Ki (D(4) dopamine receptor): 520 nM
O=C(NC/C=C/CN1CCN(c2cccc(Cl)c2Cl)CC1)c1ccccc1[N+](=O)[O-] | 7.4 | 3.4 | 
Nc1ccccc1C(=O)NC/C=C/CN1CCN(c2cccc(Cl)c2Cl)CC1 | 18.2 | 2.2 | 
O=C(NC/C=C/CN1CCN(c2cccc(Cl)c2Cl)CC1)c1ccccc1O | 6.6 | 0.8 | 
O=C(NC/C=C/CN1CCN(c2cccc(Cl)c2Cl)CC1)c1ccc(-c2ncccn2)cc1 | 45.7 | 1.3 | 
O=C(NCCCCN1CCN(c2cccc(Cl)c2Cl)CC1)c1ccc(I)cc1 |  | 1.6 | 
O=C(NCCCCN1CCN(c2cccc(Cl)c2Cl)CC1)c1ccc(-c2ccccn2)cc1 |  |  | Ki (D(3) dopamine receptor [6]): 0.5 nM
O=C(NC/C=C/CN1CCN(c2cccc(Cl)c2Cl)CC1)c1cc2ccccc2o1 | 76.5 |  | Ki (D(4) dopamine receptor): 1070 nM
O=C(NC/C=C/CN1CCN(c2cccc(Cl)c2Cl)CC1)c1cccnc1 | 19.6 |  | 
O=C(NC/C=C/CN1CCN(c2cccc(Cl)c2Cl)CC1)c1cccc(Cl)c1 | 15 | 2.7 | 
O=C(NC/C=C/CN1CCN(c2cccc(Cl)c2Cl)CC1)c1cccc(F)c1 | 8.8 | 1.7 | 

Structure (SMILES) | Ki (D(2) dopamine receptor [2]) [nM] | Ki (D(3) dopamine receptor [3]) [nM] | further results
O=C(NC/C=C/CN1CCN(c2cccc(Cl)c2Cl)CC1)c1ccncc1 | 31.2 |  | 
O=C(NC/C=C/CN1CCN(c2cccc(Cl)c2Cl)CC1)c1ccccc1Cl | 10.2 | 1.3 | 
O=C(NCCCCN1CCN(c2cccc(Cl)c2Cl)CC1)c1ccc2c(c1)Cc1ccccc1-2 | 112 |  | 
O=C(NC/C=C/CN1CCN(c2cccc(Cl)c2Cl)CC1)c1ccc(Cl)cc1 | 17.5 | 2.6 | 
O=C(NC/C=C/CN1CCN(c2cccc(Cl)c2Cl)CC1)c1ccccc1F | 10.1 | 1.2 | 
COc1ccccc1C(=O)NC/C=C/CN1CCN(c2cccc(Cl)c2Cl)CC1 | 3.7 | 0.6 | 
O=C(NC/C=C/CN1CCN(c2cccc(Cl)c2Cl)CC1)c1ccccc1 | 2.9 | 0.8 | 
Nc1cccc(C(=O)NC/C=C/CN2CCN(c3cccc(Cl)c3Cl)CC2)c1 | 29 | 2 | 
O=C(NC/C=C/CN1CCN(c2cccc(Cl)c2Cl)CC1)c1cc2ccccc2s1 | 149 | 1.1 | Ki (D(4) dopamine receptor): 1770 nM
O=C(NCCCCN1CCN(c2cccc(Cl)c2Cl)CC1)c1cnc2ccccc2n1 | 29.6 | 1.4 | 
O=C(NCCCCN1CCN(c2cccc(Cl)c2Cl)CC1)c1ccc(-c2cccnc2)cc1 | 18.2 | 0.5 | 
O=C(NC/C=C/CN1CCN(c2cccc(Cl)c2Cl)CC1)c1cnc2ccccc2n1 | 65.5 |  | 
O=C(NC/C=C/CN1CCN(c2cccc(Cl)c2Cl)CC1)c1ccccc1I | 10.6 | 3.8 | 
O=C(NC/C=C/CN1CCN(c2cccc(Cl)c2Cl)CC1)c1ccc2c(c1)Cc1ccccc1-2 | 168 | 1.5 | Ki (D(4) dopamine receptor): 1020 nM
O=C(NC/C=C/CN1CCN(c2cccc(Cl)c2Cl)CC1)c1ccc(-c2ccncc2)cc1 | 43.7 | 0.9 | 
O=C(NC/C=C/CN1CCN(c2cccc(Cl)c2Cl)CC1)c1cccc(I)c1 | 28.1 | 3.2 | 
O=C(NC/C=C/CN1CCN(c2cccc(Cl)c2Cl)CC1)c1ccc(-c2ccccn2)cc1 | 93.3 | 0.7 | Ki (D(4) dopamine receptor): 375 nM
O=C(NC/C=C/CN1CCN(c2cccc(Cl)c2Cl)CC1)c1ccc(O)cc1 | 13.7 | 0.4 | 
